Measured values: patent US12527788B2, “Defining RNA-small molecule affinity landscapes enables design of a small molecule inhibitor of an oncogenic non-coding RNA” (University of Florida Research Foundation, Incorporated, priority 2017, dated 2026)

Assays:
AT-rich DNA hairpin = test: In solution fluorescence-based binding affinity measurement
Description: It has been difficult to identify compounds that are heterocyclic in nature that selectively recognize RNA over DNA.^5 Thus, to further gain insight into the selectivity of our RNA motif-small molecule interactions, we compared the measured affinities for selected RNA motifs to the affinities of the ligands for an AT-rich DNA hairpin, a common target of small molecules similar to those shown in FIG. 1. […] This alteration reduces DNA affinity because key stacking and hydrogen bonding interactions are not possible. […] Thus, the interactions selected via 2DCS are RNA-selective.
(§1) Binding Affinity Measurements: An in solution, fluorescence-based assay was used to determine binding affinities by monitoring the change in fluorescence intensity of 1-FL (or 2-FL/3-FL/4-FL) as a function of RNA concentration as described previously.^18 Briefly, the RNA of interest was folded in 1× Folding Buffer (8 mM Na2HPO4, pH 7.0, 185 mM NaCl and 1 mM EDTA) by heating at 60° C. for 5 min followed by slowly cooling to room temperature on the bench top. Then, the FL-conjugated compound was added into the RNA solution to a final concentration of 100 nM. Serial dilutions were then completed using 1× Folding Buffer supplemented with 100 nM FL-conjugated compound. The solutions were incubated at room temperature for 30 min and then transferred to a well of a black 384-well plate. Fluorescence intensity was measured using a Bio-Tek FL×800 plate reader with an excitation wavelength of 485/20 nm and an emission wavelength of 528/20 nm. The change in fluorescence intensity as a function of the concentration of RNA was fit to equation 3:^9 I=I0+0.5 Δε{([FL]0+[RNA]0 +Kd)−(([FL]0+[RNA]0+Kd)^2−4[FL]0[RNA]0)^1/2} (3) where I is the observed fluorescence intensity; I0 is the fluorescence intensity in the absence of RNA; Δε is the difference between the fluorescence intensity in the absence of RNA and in the presence of infinite RNA concentration; [FL]0 is the concentration of compound; [RNA]0 is the concentration of the selected RNA; and Kd is the dissociation constant.

selected RNA motifs = test: as above; settings: read-out: Average Kd of Selected RNA Binders
Protocol: Bound RNA motifs for each compound were harvested from the array surface, amplified, and identified by using high throughput sequencing (RNA-seq). Highly abundant RNAs in the sequencing data were then subjected to binding measurements. Typically, those RNAs that were highly enriched bound to the small molecules with affinities (Kds) that ranged from 1 to 10 μM (FIG. 2 and Table 1) while binding to the starting libraries was not saturable. These affinities are promising for binding RNA, as it has been difficult to acquire low micromolar affinity with compounds of this low molecular weight. In fact, RNAs that have undergone Darwinian evolution to bind small molecules, namely riboswitches, often bind their cognate ligand at […] concentrations;^30-33 bioactive compounds that mimic riboswitch ligands bind with similar affinities.^30,34
as §1

Kd (AT-rich DNA hairpin) [µM]	Kd (selected RNA motifs) [µM]	Compound
> 100	16 ± 9	CN1CCN(c2ccc(-c3ccc4nc(-c5ccc(OCCCC(=O)NCCCN=[N+]=[N-])cc5)[nH]c4c3)cc2)CC1 [Compound 1]
> 100	7 ± 5	Cc1cc(-c2nc3ccc(-c4ccc(N5CCN(C)CC5)cc4)cc3[nH]2)cc(C)c1OCCCC(=O)NCCCN=[N+]=[N-] [Compound 2]
> 100	8 ± 4	CC(C)c1cc(-c2nc3ccc(-c4ccc(N5CCN(C)CC5)cc4)cc3[nH]2)cc(C(C)C)c1OCCCC(=O)NCCCN=[N+]=[N-] [Compound 3]
